The assay has as its target human APJ receptor (Homo sapiens (Human), UniProt P35414). Description: biochemical. The conditions noted are these: read-out: Activity hAPJ SPA EC50 IP. In kind it is biochemical. The method, then: The human APJ receptor was cloned by polymerase chain reaction and the gene encoding the receptor was subcloned in pFLAG-CMV™-3 expression vector (Sigma, Saint Louis, Mo. USA) in-house at Amgen. A GTPγS binding assay was performed on membranes prepared from CHO cells stably expressing human APJ receptor. The optimum experimental conditions for the concentrations of GDP, MgCl2, and NaCl in the assay buffer were initially determined. The assay was performed in assay buffer [20 mM HEPES, pH 7.5, 5 mM MgCl2, and 0.1% (w/v) BSA with 200 mM NaCl, 3 μM GDP] and membranes expressing human APJ receptor/well along with WGA PS beads. The reaction was initiated by addition of 0.2 nM [^35S]GTPγS (Perkin Elmer Life and Analytical Sciences, Waltham USA) in the absence or presence of various ligands and incubated at RT for 90 min. […] All the results presented are means of several independent experiments and analyzed by non-linear regression methods using commercially available program Prism (GraphPad, San Diego, Calif.) to obtain EC50 detailed in Table 58.

human APJ receptor, sequence (P35414 whole entry): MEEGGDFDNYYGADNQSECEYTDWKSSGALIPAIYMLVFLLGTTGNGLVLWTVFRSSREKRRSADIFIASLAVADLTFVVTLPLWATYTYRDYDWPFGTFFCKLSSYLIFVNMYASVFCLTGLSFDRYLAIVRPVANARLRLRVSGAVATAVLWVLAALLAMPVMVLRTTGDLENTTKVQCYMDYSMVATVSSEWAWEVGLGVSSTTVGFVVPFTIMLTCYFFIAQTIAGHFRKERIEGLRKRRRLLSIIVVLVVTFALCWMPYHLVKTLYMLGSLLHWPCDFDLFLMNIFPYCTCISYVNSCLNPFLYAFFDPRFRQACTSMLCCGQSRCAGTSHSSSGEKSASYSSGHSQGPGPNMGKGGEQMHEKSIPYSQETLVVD

A word on the EC50: it is the midpoint of the concentration-response curve. With `COc1cccc(-c2nnc(NS(=O)(=O)[C@H](C)Cc3ncc(F)cn3)n2-c2c(C)noc2C)n1` (mixture of isomers) [Example 32.0, (2R)-N-(4-(3,5-dimethylisoxazol-4-yl)-5-(6-methoxypyridin-2-yl)-4H-1,2,4-triazol-3-yl)-1-(5-fluoropyrimidin-2-yl)propane-2-sulfonamide and (2S)-N-(4-(3,5-dimethylisoxazol-4-yl)-5-(6-methoxypyridin-2-yl)-4H-1,2,4-triazol-3-yl)-1-(5-fluoropyrimidin-2-yl)propane-2-sulfonamide], the half-maximal effective concentration (EC50) came out at 140 nM. As to `COc1cccc(-c2nnc(NS(=O)(=O)[C@H](C)C(=O)N3CCCC3)n2-c2c(OC)cccc2OC)n1` (mixture of isomers) [Example 83.0, (2R)-N-(4-(2,6-dimethoxyphenyl)-5-(6-methoxy-2-pyridinyl)-4H-1,2,4-triazol-3-yl)-1-oxo-1-(1-pyrrolidinyl)-2-propanesulfonamide and (2S)-N-(4-(2,6-dimethoxyphenyl)-5-(6-methoxy-2-pyridinyl)-4H-1,2,4-triazol-3-yl)-1-oxo-1-(1-pyrrolidinyl)-2-propanesulfonamide], the EC50 was 48 nM.

As for `COc1cccc(OC)c1-n1c(NS(=O)(=O)[C@@H](C)[C@H](C)c2ncc(F)cn2)nnc1-c1cccnc1` (mixture of isomers) [Example 182.0, (2R,3S)-N-(4-(2,6-dimethoxyphenyl)-5-(3-pyridinyl)-4H-1,2,4-triazol-3-yl)-3-(5-fluoro-2-pyrimidinyl)-2-butanesulfonamide and (2S,3R)-N-(4-(2,6-dimethoxyphenyl)-5-(3-pyridinyl)-4H-1,2,4-triazol-3-yl)-3-(5-fluoro-2-pyrimidinyl)-2-butanesulfonamide], the EC50 came out at 1.1 nM. The result for `COc1cccc(OC)c1-n1c(NS(=O)(=O)[C@@H](C)Cc2ncc(F)cn2)nnc1-c1ccccn1` (mixture of isomers) [Example 202.0, (2R)-N-(4-(2,6-dimethoxyphenyl)-5-(2-pyridinyl)-4H-1,2,4-triazol-3-yl)-1-(5-fluoro-2-pyrimidinyl)-2-propanesulfonamide and (2S)-N-(4-(2,6-dimethoxyphenyl)-5-(2-pyridinyl)-4H-1,2,4-triazol-3-yl)-1-(5-fluoro-2-pyrimidinyl)-2-propanesulfonamide] reads 15.4 nM; that for `COc1cccc(-c2nnc(NS(=O)(=O)C[C@H](O)c3ccc(Cl)cc3)n2-c2c(OC)cccc2OC)n1` (mixture of isomers) [Example 264.0, (R)-2-(4-chlorophenyl)-N-(4-(2,6-dimethoxyphenyl)-5-(6-methoxypyridin-2-yl)-4H-1,2,4-triazol-3-yl)-2-hydroxyethanesulfonamide and (S)-2-(4-chlorophenyl)-N-(4-(2,6-dimethoxyphenyl)-5-(6-methoxypyridin-2-yl)-4H-1,2,4-triazol-3-yl)-2-hydroxyethanesulfonamide], 0.34 nM. Regarding `COc1cccc(OC)c1-n1c(NS(=O)(=O)C[C@@H](O)C2CCC2)nnc1-c1cncc(C)c1` (mixture of isomers) [Example 382.0, (R)-2-cyclobutyl-N-(4-(2,6-dimethoxyphenyl)-5-(5-methylpyridin-3-yl)-4H-1,2,4-triazol-3-yl)-2-hydroxyethanesulfonamide and (S)-2-cyclobutyl-N-(4-(2,6-dimethoxyphenyl)-5-(5-methylpyridin-3-yl)-4H-1,2,4-triazol-3-yl)-2-hydroxyethanesulfonamide], the EC50 came to 73 nM. With `COc1cccc(-c2nnc(NS(=O)(=O)[C@H](C)[C@@H](O)C(C)(C)C)n2-c2c(OC)cccc2OC)n1` (mixture of isomers) [Example 433.0], the EC50 stood at 42 nM. The result for `COc1cccc(OC)c1-n1c(NS(=O)(=O)[C@@H](C)[C@H](C)c2ncc(F)cn2)nnc1-c1cccc(C)n1` (mixture of isomers) [Example 452.0, (2S,3R)—N-(4-(2,6-dimethoxyphenyl)-5-(6-methyl-2-pyridinyl)-4H-1,2,4-triazol-3-yl)-3-(5-fluoro-2-pyrimidinyl)-2-butanesulfonamide and (2R,3S)—N-(4-(2,6-dimethoxyphenyl)-5-(6-methyl-2-pyridinyl)-4H-1,2,4-triazol-3-yl)-3-(5-fluoro-2-pyrimidinyl)-2-butanesulfonamide] reads 1 nM; that for `COc1cccc(OC)c1-n1c(NS(=O)(=O)[C@@H](C)Cc2ncc(F)cn2)nnc1-c1cccc(C)n1` (mixture of isomers) [Example 618.0, (S)-N-(4-(2,6-dimethoxyphenyl)-5-(6-methylpyridin-2-yl)-4H-1,2,4-triazol-3-yl)-1-(5-fluoropyrimidin-2-yl)propane-2-sulfonamide and (R)-N-(4-(2,6-dimethoxyphenyl)-5-(6-methylpyridin-2-yl)-4H-1,2,4-triazol-3-yl)-1-(5-fluoropyrimidin-2-yl)propane-2-sulfonamide], 5.4 nM; that for `COc1cccc(OC)c1-n1c(NS(=O)(=O)[C@H](C)[C@@H](OC)c2ncnn2C)nnc1-c1cncc(C)c1` (mixture of isomers) [Example 637.0, (1S,2R)-N-(4-(2,6-dimethoxyphenyl)-5-(5-methylpyridin-3-yl)-4H-1,2,4-triazol-3-yl)-1-methoxy-1-(1-methyl-1H-1,2,4-triazol-5-yl)propane-2-sulfonamide and (1R,2S)-N-(4-(2,6-dimethoxyphenyl)-5-(5-methylpyridin-3-yl)-4H-1,2,4-triazol-3-yl)-1-methoxy-1-(1-methyl-1H-1,2,4-triazol-5-yl)propane-2-sulfonamide], 150 nM.

Take `COc1cccc(OC)c1-n1c(NS(=O)(=O)[C@@H](C)[C@H](O)c2ccc(Br)c(C)n2)nnc1-c1cccnc1` (mixture of isomers) [Example 642.0, (1R,2S)-1-(5-bromo-6-methylpyridin-2-yl)-N-(4-(2,6-dimethoxyphenyl)-5-(pyridin-3-yl)-4H-1,2,4-triazol-3-yl)-1-hydroxypropane-2-sulfonamide and (1S,2R)-1-(5-bromo-6-methylpyridin-2-yl)-N-(4-(2,6-dimethoxyphenyl)-5-(pyridin-3-yl)-4H-1,2,4-triazol-3-yl)-1-hydroxypropane-2-sulfonamide]: the EC50 turned out to be 0.48 nM.

With `COc1cccc(-c2nnc(NS(=O)(=O)[C@H]3CCCO[C@H]3c3ncc(C)cn3)n2-c2c(OC)cccc2OC)n1` (mixture of isomers) [Example 648.0], the EC50 stood at 33 nM.

For the compound `COc1cccc(OC)c1-n1c(NS(=O)(=O)C(C)Cc2ncc(F)cn2)nnc1-c1cncc(Br)c1` (racemic) [Example 146.0, (2R)-N-(5-(5-bromo-3-pyridinyl)-4-(2,6-dimethoxyphenyl)-4H-1,2,4-triazol-3-yl)-1-(5-fluoro-2-pyrimidinyl)-2-propanesulfonamide and (2S)-N-(5-(5-bromo-3-pyridinyl)-4-(2,6-dimethoxyphenyl)-4H-1,2,4-triazol-3-yl)-1-(5-fluoro-2-pyrimidinyl)-2-propanesulfonamide], the concentration for a half-maximal effect (EC50) turned out to be 2.1 nM.

As to `COc1cccc(OC)c1-n1c(NS(=O)(=O)[C@H](C)[C@@H](C)n2cc(C)cn2)nnc1-c1cncc(C)c1` (racemic) [Example 647.0], the EC50 turned out to be 1.7 nM.

The values are drawn from patent US10058550B2, “Methods of treating heart failure” (priority 2015, dated 2018).
